# Experimental data from patent publication US9469650B2, “Melampomagnolide B derivatives” (BOARD OF TRUSTEES OF THE UNIVERSITY OF ARKANSAS, priority 2013, dated 2016).
# Legend:
# U251 = experiment: panel of 60 human tumor cell lines, growth inhibition (CNS Cancer); details: U251
# RXF 393 = experiment: panel of 60 human tumor cell lines, growth inhibition (Renal Cancer); details: RXF 393
# OVCAR-3 = experiment: panel of 60 human tumor cell lines, growth inhibition (Ovarian Cancer); details: OVCAR-3
# K-562 = experiment: panel of 60 human tumor cell lines, growth inhibition (Leukemia); details: K-562
# SK-MEL-2 = experiment: panel of 60 human tumor cell lines, growth inhibition (Melanoma); details: SK-MEL-2
# LOX IMVI = experiment: as above
# SK-MEL-28 = experiment: as above; details: SK-MEL-28
# A549/ATCC = experiment: panel of 60 human tumor cell lines, growth inhibition (Non-Small Cell Lung Cancer); details: A549/ATCC
# OVCAR-8 = experiment: panel of 60 human tumor cell lines, growth inhibition (Ovarian Cancer); details: OVCAR-8
compound,measurement,setting,value
C=C1C(=O)O[C@H]2[C@H]1CC/C(COC(=O)N1CCN(C)CC1)=C\CC[C@@]1(C)O[C@@H]21 [JVM 2-44],GI50,U251,18.7 µM
same,TGI,U251,4.08E−5
same,Mean Optical Densities,U251; Log10 Concentration −4.0,0.206
same,Percent Growth,U251; Log10 Concentration −4.0,−58%
same,Mean Optical Densities,U251; Log10 Concentration −5.0,1.893
same,Percent Growth,U251; Log10 Concentration −5.0,90%
same,Mean Optical Densities,U251; Log10 Concentration −6.0,2.002
same,Percent Growth,U251; Log10 Concentration −6.0,97%
same,Mean Optical Densities,U251; Log10 Concentration −7.0,2.003
same,Percent Growth,U251; Log10 Concentration −7.0,97%
same,Mean Optical Densities,U251; Log10 Concentration −8.0,2.013
same,Percent Growth,U251; Log10 Concentration −8.0,98%
same,GI50,RXF 393,2.55 µM
same,TGI,RXF 393,8.91E−6
same,Mean Optical Densities,RXF 393; Log10 Concentration −4.0,0.329
same,Percent Growth,RXF 393; Log10 Concentration −4.0,−71%
same,Mean Optical Densities,RXF 393; Log10 Concentration −5.0,1.871
same,Percent Growth,RXF 393; Log10 Concentration −5.0,−5%
same,Mean Optical Densities,RXF 393; Log10 Concentration −6.0,1.644
same,Percent Growth,RXF 393; Log10 Concentration −6.0,87%
same,Mean Optical Densities,RXF 393; Log10 Concentration −7.0,1.692
same,Percent Growth,RXF 393; Log10 Concentration −7.0,96%
same,Mean Optical Densities,RXF 393; Log10 Concentration −8.0,1.646
same,Percent Growth,RXF 393; Log10 Concentration −8.0,88%
same,GI50,OVCAR-3,3.86 µM
same,TGI,OVCAR-3,1.59E−5
same,Mean Optical Densities,OVCAR-3; Log10 Concentration −4.0,0.031
same,Percent Growth,OVCAR-3; Log10 Concentration −4.0,−94%
same,Mean Optical Densities,OVCAR-3; Log10 Concentration −5.0,0.743
same,Percent Growth,OVCAR-3; Log10 Concentration −5.0,24%
same,Mean Optical Densities,OVCAR-3; Log10 Concentration −6.0,1.396
same,Percent Growth,OVCAR-3; Log10 Concentration −6.0,87%
same,Mean Optical Densities,OVCAR-3; Log10 Concentration −7.0,1.594
same,Percent Growth,OVCAR-3; Log10 Concentration −7.0,107%
same,Mean Optical Densities,OVCAR-3; Log10 Concentration −8.0,1.551
same,Percent Growth,OVCAR-3; Log10 Concentration −8.0,102%
same,GI50,K-562,4.25 µM
same,TGI,K-562,2.82E−5
same,Mean Optical Densities,K-562; Log10 Concentration −4.0,0.152
same,Percent Growth,K-562; Log10 Concentration −4.0,−25%
same,Mean Optical Densities,K-562; Log10 Concentration −5.0,0.394
same,Percent Growth,K-562; Log10 Concentration −5.0,21%
same,Mean Optical Densities,K-562; Log10 Concentration −6.0,1.109
same,Percent Growth,K-562; Log10 Concentration −6.0,99%
same,Mean Optical Densities,K-562; Log10 Concentration −7.0,1.030
same,Percent Growth,K-562; Log10 Concentration −7.0,91%
same,Mean Optical Densities,K-562; Log10 Concentration −8.0,1.141
same,Percent Growth,K-562; Log10 Concentration −8.0,103%
same,GI50,SK-MEL-2,17.2 µM
same,TGI,SK-MEL-2,3.60E−5
same,Mean Optical Densities,SK-MEL-2; Log10 Concentration −4.0,0.382
same,Percent Growth,SK-MEL-2; Log10 Concentration −4.0,−69%
same,Mean Optical Densities,SK-MEL-2; Log10 Concentration −5.0,1.984
same,Percent Growth,SK-MEL-2; Log10 Concentration −5.0,87%
same,Mean Optical Densities,SK-MEL-2; Log10 Concentration −6.0,2.148
same,Percent Growth,SK-MEL-2; Log10 Concentration −6.0,106%
same,Mean Optical Densities,SK-MEL-2; Log10 Concentration −7.0,2.037
same,Percent Growth,SK-MEL-2; Log10 Concentration −7.0,93%
same,Mean Optical Densities,SK-MEL-2; Log10 Concentration −8.0,2.082
same,Percent Growth,SK-MEL-2; Log10 Concentration −8.0,98%
same,GI50,LOX IMVI,12.4 µM
same,TGI,LOX IMVI,2.63E−5
same,Mean Optical Densities,LOX IMVI; Log10 Concentration −4.0,0.051
same,Percent Growth,LOX IMVI; Log10 Concentration −4.0,−89%
same,Mean Optical Densities,LOX IMVI; Log10 Concentration −5.0,1.794
same,Percent Growth,LOX IMVI; Log10 Concentration −5.0,64%
same,Percent Growth,LOX IMVI; Log10 Concentration −6.0,96%
same,Mean Optical Densities,LOX IMVI; Log10 Concentration −7.0,2.419
same,Percent Growth,LOX IMVI; Log10 Concentration −7.0,94%
same,Mean Optical Densities,LOX IMVI; Log10 Concentration −8.0,2.424
same,Percent Growth,LOX IMVI; Log10 Concentration −8.0,94%
same,GI50,SK-MEL-28,7.03 µM
same,TGI,SK-MEL-28,2.21E−5
same,Mean Optical Densities,SK-MEL-28; Log10 Concentration −4.0,0.108
same,Percent Growth,SK-MEL-28; Log10 Concentration −4.0,−80%
same,Mean Optical Densities,SK-MEL-28; Log10 Concentration −5.0,0.950
same,Percent Growth,SK-MEL-28; Log10 Concentration −5.0,42%
same,Mean Optical Densities,SK-MEL-28; Log10 Concentration −6.0,1.424
same,Percent Growth,SK-MEL-28; Log10 Concentration −6.0,93%
same,Mean Optical Densities,SK-MEL-28; Log10 Concentration −7.0,1.424
same,Percent Growth,SK-MEL-28; Log10 Concentration −7.0,93%
same,Mean Optical Densities,SK-MEL-28; Log10 Concentration −8.0,1.458
same,Percent Growth,SK-MEL-28; Log10 Concentration −8.0,96%
same,GI50,A549/ATCC,20.5 µM
same,TGI,A549/ATCC,6.23E−5
same,Mean Optical Densities,A549/ATCC; Log10 Concentration −4.0,0.267
same,Percent Growth,A549/ATCC; Log10 Concentration −4.0,−21%
same,Mean Optical Densities,A549/ATCC; Log10 Concentration −5.0,1.536
same,Percent Growth,A549/ATCC; Log10 Concentration −5.0,82%
same,Mean Optical Densities,A549/ATCC; Log10 Concentration −6.0,1.748
same,Percent Growth,A549/ATCC; Log10 Concentration −6.0,97%
same,Mean Optical Densities,A549/ATCC; Log10 Concentration −7.0,1.802
same,Percent Growth,A549/ATCC; Log10 Concentration −7.0,101%
same,Mean Optical Densities,A549/ATCC; Log10 Concentration −8.0,1.778
same,Percent Growth,A549/ATCC; Log10 Concentration −8.0,99%
same,GI50,OVCAR-8,11.1 µM
same,TGI,OVCAR-8,3.06E−5
same,Mean Optical Densities,OVCAR-8; Log10 Concentration −4.0,0.184
same,Percent Growth,OVCAR-8; Log10 Concentration −4.0,−61%
same,Mean Optical Densities,OVCAR-8; Log10 Concentration −5.0,1.385
same,Percent Growth,OVCAR-8; Log10 Concentration −5.0,59%
same,Mean Optical Densities,OVCAR-8; Log10 Concentration −6.0,1.997
same,Percent Growth,OVCAR-8; Log10 Concentration −6.0,98%
same,Mean Optical Densities,OVCAR-8; Log10 Concentration −7.0,2.055
same,Percent Growth,OVCAR-8; Log10 Concentration −7.0,102%
same,Mean Optical Densities,OVCAR-8; Log10 Concentration −8.0,2.052
same,Percent Growth,OVCAR-8; Log10 Concentration −8.0,101%
